Converted amounts (≈) assume the structure as drawn.
Columns and labels:
[1] = target: T1, Enoyl-[acyl-carrier-protein] reductase [NADH] (Mycobacterium tuberculosis, UniProt P9WGR1)
T1 sequence (P9WGR1 whole entry): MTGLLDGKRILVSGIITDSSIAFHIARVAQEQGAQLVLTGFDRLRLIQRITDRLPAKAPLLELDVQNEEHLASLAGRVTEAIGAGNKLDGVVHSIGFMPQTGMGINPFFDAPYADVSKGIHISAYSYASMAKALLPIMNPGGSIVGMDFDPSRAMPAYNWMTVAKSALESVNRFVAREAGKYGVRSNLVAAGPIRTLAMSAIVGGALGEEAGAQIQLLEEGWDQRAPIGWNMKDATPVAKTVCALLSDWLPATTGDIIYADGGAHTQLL

[2] = target: T1, Enoyl-[acyl-carrier-protein] reductase [NADH]; experiment: Binding affinity to Mycobacterium tuberculosis InhA in presence of NADH by surface plasmon resonance assay
[3] = target: T1, Enoyl-[acyl-carrier-protein] reductase [NADH]; experiment: Binding affinity to Mycobacterium tuberculosis InhA in presence of NAD+ by surface plasmon resonance assay
[4] = target: T1, Enoyl-[acyl-carrier-protein] reductase [NADH]; experiment: Inhibition of Mycobacterium tuberculosis InhA
[5] = tested on: Mycobacterium tuberculosis; experiment: Antimycobacterial activity against Mycobacterium tuberculosis; assay type: functional
[6] = target: T1, Enoyl-[acyl-carrier-protein] reductase [NADH]; experiment: Inhibition of Mycobacterium tuberculosis InhA using trans-2-dodecenoyl-CoA as substrate
[7] = target: T1, Enoyl-[acyl-carrier-protein] reductase [NADH]; experiment: Binding affinity to Mycobacterium tuberculosis InhA in presence of NADH
[8] = target: T1, Enoyl-[acyl-carrier-protein] reductase [NADH]; experiment: Inhibition of Mycobacterium tuberculosis InhA using dodecenoyl-CoA as substrate in presence of NADH by fluorimetric analysis
[9] = target: T1, Enoyl-[acyl-carrier-protein] reductase [NADH]; experiment: Binding affinity to Mycobacterium tuberculosis InhA in presence of NAD+
[10] = tested on: Mycobacterium tuberculosis; experiment: Antimycobacterial activity against Mycobacterium tuberculosis after 5 days by fluoresence analysis; assay type: functional; settings: 120 h
[11] = target: T1, Enoyl-[acyl-carrier-protein] reductase [NADH]; experiment: Binding affinity to Mycobacterium tuberculosis InhA in presence of TCEP and NADH by isothermal titration calorimetry
[12] = target: T1, Enoyl-[acyl-carrier-protein] reductase [NADH]; experiment: Inhibition of Mycobacterium tuberculosis InhA using trans-2-decenoyl-CoA as substrate by spectrophotometric analysis

Compound: CNC(=O)CN(Cc1ccc(F)cc1)C(=O)[C@H]1CC[C@@H](NC(=O)Cc2sc3ccccc3c2C)CC1
- IC50 [1]: 0.6 µM
- Kd [2]: 0.094 µM
- Kd [3]: 46.7 µM

Compound: CCCc1cc(C(=O)c2cc[n+]([C@@H]3O[C@H](COP(=O)(O)OP(=O)(O)OC[C@H]4O[C@@H](n5cnc6c(N)ncnc65)[C@H](O)[C@@H]4O)[C@@H](O)[C@H]3O)cc2C(N)=O)ccn1
- Ki [4]: 0.002 µM
- MIC50 [5]: 2.7 µM

Compound: CCCCCCc1ccc(Oc2ccccc2C#N)c(O)c1
- Ki [4]: 0.00214 µM
- MIC50 [5]: 8.4 µM (≈ 2.48 µg/mL)

Compound: CC1(C)CCC(Cc2cc(O)c(-c3ccccc3)c(=O)[nH]2)CC1
- IC50 [6]: 0.57 µM
- MIC50 [5]: 0.08 µM (≈ 0.0249 µg/mL)

Compound: Oc1cc(Cc2ccccc2)ccc1Oc1ccc(Cl)cc1Cl
- IC50 [4]: 0.051 µM
- MIC50 [5]: 27 µM (≈ 9.32 µg/mL)

Compound: CCCCCCc1ccc(Oc2ccccc2Cl)c(O)c1
- MIC50 [5]: 5.1 µM (≈ 1.55 µg/mL)

Compound: Cc1csc(C(C)(O)c2nnc(Nc3ccn(Cc4c(F)cccc4F)n3)s2)n1 (centres undefined)
- Kd [7]: 0.0115 µM
- IC50 [8]: 0.003 µM
- Kd [9]: 9.3 µM
- MIC50 [5]: 0.19 µM (≈ 0.0826 µg/mL)

Compound: CCCCCCc1ccc(Oc2ccccc2Br)c(O)c1
- IC50 [4]: 0.01 µM
- MIC50 [5]: 8.8 µM (≈ 3.07 µg/mL)

Compound: CCCCCc1ccc(Oc2ccc(Cl)cc2Cl)c(O)c1
- Ki [4]: 0.0118 µM
- MIC99 [5]: 3.5 µM (≈ 1.14 µg/mL)

Compound: Cc1ccn(C(C)c2nnc(Nc3ccn(Cc4c(F)cccc4Cl)n3)s2)n1 (centres undefined)
- Ki [4]: 0.002 µM
- MIC50 [5]: 1 µM (≈ 0.418 µg/mL)

Compound: NC(=O)c1c[n+]([C@@H]2O[C@H](COP(=O)(O)OP(=O)(O)OC[C@H]3O[C@@H](n4cnc5c(N)ncnc54)[C@H](OP(=O)(O)O)[C@@H]3O)[C@@H](O)[C@H]2O)ccc1C(=O)c1ccncc1
- Ki [4]: 0.13 µM

Compound: CNC(=O)CN(C(=O)Cc1ccc(-n2cccn2)cc1)C1CCN(c2ccccn2)CC1
- MIC50 [10]: 50 µM (≈ 21.6 µg/mL)
- IC50 [1]: 5.9 µM
- Kd [2]: 0.0368 µM
- Kd [3]: > 100 µM

Compound: Cc1cc(C)n(Cc2ccc(C(=O)NCc3ccc(F)cc3Cl)cc2)n1
- Ki [4]: 0.05 µM
- MIC90 [5]: 10 µM (≈ 3.72 µg/mL)

Compound: Oc1cc(CCc2ccccc2)ccc1Oc1ccc(Cl)cc1Cl
- IC50 [4]: 0.021 µM
- MIC50 [5]: 52 µM (≈ 18.7 µg/mL)

Compound: CCCCCCc1ccc(Oc2ccccc2[N+](=O)[O-])c(O)c1
- MIC50 [5]: 39.6 µM (≈ 12.5 µg/mL)

Compound: CCc1cc(C(=O)c2cc[n+]([C@@H]3O[C@H](COP(=O)(O)OP(=O)(O)OC[C@H]4O[C@@H](n5cnc6c(N)ncnc65)[C@H](O)[C@@H]4O)[C@@H](O)[C@H]3O)cc2C(N)=O)ccn1
- Ki [4]: 0.007 µM
- MIC50 [5]: 3 µM

Compound: CCCCCCc1ccc(Oc2ccccc2C)c(O)c1
- MIC50 [5]: 10.9 µM (≈ 3.1 µg/mL)

Compound: CNC(=O)CN1CCN(C(=O)[C@H]2CC[C@@H](NC(=O)Cc3sc4ccccc4c3C)CC2)[C@@H](Cc2ccccc2)C1=O
- MIC50 [10]: 13 µM (≈ 7.47 µg/mL)
- IC50 [1]: 0.065 µM
- Kd [2]: 0.34 µM
- Kd [3]: 13.4 µM

Compound: Oc1cc(Cl)ccc1Oc1ccc(Cl)cc1Cl [TRICLOSAN]
- MIC99 [5]: 43.1 µM (≈ 12.5 µg/mL)

Compound: O=c1[nH]c(CC2CCCCC2)cc(O)c1-c1ccccc1
- IC50 [6]: 0.59 µM
- Kd [11]: 0.56 µM
- MIC50 [5]: 0.31 µM (≈ 0.0878 µg/mL)

Compound: NC(=O)c1c[n+]([C@@H]2O[C@H](COP(=O)(O)OP(=O)(O)OC[C@H]3O[C@@H](n4cnc5c(N)ncnc54)[C@H](O)[C@@H]3O)[C@@H](O)[C@H]2O)ccc1C(=O)c1ccncc1
- Ki [12]: 0.00075 µM

Compound: Cc1csc(C(C)(O)c2n[nH]/c(=N\C(=O)c3c(F)cccc3F)s2)n1 (centres undefined)
- IC50 [8]: 0.2 µM
- MIC50 [5]: 3.75 µM (≈ 1.43 µg/mL)

Compound: CCCCc1ccnc(Cc2ccc(Oc3ccc(Cl)cc3Cl)c(O)c2)c1
- Ki [4]: 1.1 µM
- MIC99 [5]: 6.4 µM (≈ 2.57 µg/mL)

Compound: NNC(=O)c1ccncc1 [ISONIAZID]
- MIC [5]: 1.8 µM (≈ 0.247 µg/mL)

Compound: CNC(=O)[C@@H]1C[C@H](NC(=O)[C@@H](NC(=O)c2ccc(Cn3cccn3)cc2)[C@@H](C)OC(C)(C)C)CN1C(=O)c1ccccc1
- MIC50 [10]: 0.13 µM (≈ 0.0765 µg/mL)
- IC50 [1]: 12 µM
- Kd [2]: 0.055 µM
- Kd [3]: 49 µM

Compound: Oc1cc(CC2CCCCC2)ccc1Oc1ccc(Cl)cc1Cl
- IC50 [4]: 0.11 µM
- MIC50 [5]: 27 µM (≈ 9.48 µg/mL)

Compound: CNC(=O)c1cnc(NC2CCN(c3ccccn3)CC2)c(NCc2ccc(F)c(Oc3ccccc3)c2)c1
- MIC50 [10]: 25 µM (≈ 13.2 µg/mL)
- IC50 [1]: 0.297 µM
- Kd [2]: 0.25 µM
- Kd [3]: > 100 µM
